Measured values published in ChEMBL document CHEMBL1156122, “Protein tyrosine phosphatase 1B inhibitors isolated from Morus bombycis” (Bioorg Med Chem Lett, 2009).

Biological target: T1, Tyrosine-protein phosphatase non-receptor type 1 (Homo sapiens, UniProt P18031)
T1 sequence (P18031 whole entry): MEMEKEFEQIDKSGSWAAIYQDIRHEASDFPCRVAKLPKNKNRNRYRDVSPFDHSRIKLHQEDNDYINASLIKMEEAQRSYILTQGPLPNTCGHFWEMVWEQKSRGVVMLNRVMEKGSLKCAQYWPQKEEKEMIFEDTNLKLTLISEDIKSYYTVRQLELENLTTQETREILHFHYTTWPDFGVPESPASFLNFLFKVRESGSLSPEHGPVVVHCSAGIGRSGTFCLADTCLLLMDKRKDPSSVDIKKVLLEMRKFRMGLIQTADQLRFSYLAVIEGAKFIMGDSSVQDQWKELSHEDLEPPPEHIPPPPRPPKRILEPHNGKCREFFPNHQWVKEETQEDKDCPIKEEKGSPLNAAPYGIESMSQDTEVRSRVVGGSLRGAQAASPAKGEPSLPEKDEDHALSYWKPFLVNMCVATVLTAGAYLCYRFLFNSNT
Experiment: Inhibition of human recombinant PTP1B

IC50 [µM]	SMILES
4.3	CC(C)=CCC/C(C)=C/Cc1c(O)ccc2cc(-c3cc(O)cc(O)c3CC=C(C)C)oc12 [MULBERROFURAN D]
8.2	CC(C)=CCc1c(O)cc(C(=O)[C@H]2[C@@H](c3c(O)ccc(C(=O)/C=C/c4ccc(O)cc4)c3O)C=C(C)C[C@@H]2c2ccc(O)cc2O)cc1O [KUWANON R]
2.7	CC(C)=CCC/C(C)=C\CC/C(C)=C\Cc1c(O)cc(O)cc1-c1cc2ccc(O)cc2o1 [MULBERROFURAN W]
2.7	CC(C)=CCc1c(O)cc(C(=O)[C@H]2[C@@H](c3c(O)ccc(C(=O)/C=C/c4ccc(O)cc4O)c3O)C=C(C)C[C@@H]2c2ccc(O)cc2O)cc1O [KUWANON J]
13.8	CC(C)=CCc1c(O)cc(C(=O)[C@H]2[C@@H](c3c(O)ccc(C(=O)/C=C/c4ccc(O)cc4)c3O)C=C(C)C[C@@H]2c2ccc(O)cc2)cc1O [KUWANON V]
9.2	CC(C)=CCC/C(C)=C/Cc1c(O)cc(O)cc1-c1cc2ccc(O)cc2o1 [ALBAFURAN A]
